In patent US20210255193A1, “LYSINE REACTIVE PROBES AND USES THEREOF” (The Scripps Research Institute, priority 2017, published 2021):

Key:
Test in all cases: competitive isoTOP-ABPP
Format in all cases: binding
[1] = molecular target: T1, WARS Tryptophan--tRNA ligase, cytoplasmic (Homo sapiens, UniProt P23381); conditions: 50 uM, in vitro; for isoTOP-ABPP ratio (R) at liganded lysine P23381_K256: sol, 231
T1 construct: isoTOP-ABPP experiments performed in cell lysates (in vitro); endogenous in cells; host or cells: soluble proteome of human cancer cell lines (MDA-MB-231; Ramos and Jurkat also prepared)
T1 sequence (P23381 1-471): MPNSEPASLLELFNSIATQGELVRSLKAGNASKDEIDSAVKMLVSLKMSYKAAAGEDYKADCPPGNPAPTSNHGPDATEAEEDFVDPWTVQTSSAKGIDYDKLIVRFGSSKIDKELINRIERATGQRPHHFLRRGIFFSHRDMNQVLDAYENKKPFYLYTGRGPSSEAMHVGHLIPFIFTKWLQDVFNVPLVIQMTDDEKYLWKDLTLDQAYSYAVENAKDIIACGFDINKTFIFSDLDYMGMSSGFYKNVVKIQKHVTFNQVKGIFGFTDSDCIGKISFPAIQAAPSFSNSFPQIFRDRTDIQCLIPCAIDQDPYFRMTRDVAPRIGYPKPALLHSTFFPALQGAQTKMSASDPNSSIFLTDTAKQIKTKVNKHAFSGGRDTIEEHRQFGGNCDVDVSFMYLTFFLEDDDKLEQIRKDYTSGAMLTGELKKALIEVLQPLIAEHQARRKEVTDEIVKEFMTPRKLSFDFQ
Procedure: (§1) In vitro covalent fragment treatment for isoTOP-ABPP. All compounds were made up as solutions in DMSO (100×) and were used at a final concentration of 50 μM for activated esters and 100 μM for guanidinylating agents. For each profiling sample, 0.5 ml of lysate was treated with 5 μl of the 100× compound stock solution or 5 μl of DMSO. Samples were treated with activated esters for
(§2) STP-alkyne labeling and click chemistry. For concentration-dependent reactivity measurements by isoTOP-ABPP, 0.5 ml proteome aliquots were treated at ambient temperature with 1 mM STP-alkyne 1 (5 μl of 100 mM stock in DMSO) and 0.1 mM STP alkyne 1 (5 μl of 10 mM stock in DMSO), respectively. For competitive isoTOP-ABPP, after in vitro fragment treatment (detailed above), the samples were labeled for 1 h at ambient temperature with 0.1 mM STP-alkyne 1 (5 μl of 10 mM stock in DMSO). Samples were conjugated by copper-mediated azide-alkyne cycloaddition (CuAAC) to either the light (1 mM STP-alkyne or fragment treated) or heavy (0.1 mM STP-alkyne or DMSO treated) TEV tags (10 μl of 5 mM stocks in DMSO, final concentration=100 μM) using tris(2-carboxyethyl)phosphine hydrochloride
(§3) R value calculation and processing. The ratios of light and heavy MS1 peaks for each unique peptide were quantified with a CIMAGE software using default parameters (3 MS1 acquisitions per peak and signal to noise threshold set to 2.5). For reactivity measurements by isoTOP-ABPP, the R value was calculated from the ratio of MS1 peak areas, comparing the 1 mM STP alkyne sample (light TEV tag) with the 0.1 mM STP alkyne sample (heavy TEV tag). For competitive isoTOP-ABPP, the R value was calculated from the ratio of MS1 peak areas, comparing the DMSO treated sample (heavy TEV tag) with the compound treated sample (light TEV tag). […] Ratios for unique peptide entries are calculated for each experiment; overlapping peptides with the same modified lysine (for example, different charge states, MudPIT chromatographic steps or tryptic termini) are grouped together and the median ratio is reported as the final ratio (R). The peptide ratios reported by CIMAGE were further filtered to ensure the removal or correction of low-quality ratios in each individual data set. The quality filters applied were the following: removal of half tryptic peptides; for ratios with high standard deviations from the median (90% of the median or above) the lowest ratio was taken instead of the median; removal of peptides with R=20 and only a single MS2 event triggered during the elution of the parent ion; manual annotation of all the peptides with ratios of 20, removing any peptides with low quality elution profiles that remained after the previous curation steps (only done for competitive isoTOP-ABPP).
(§4) Cross-data processing for fragment screening. For compound treated samples, biological replicates of the same condition were averaged, if the standard deviation was below 60% of the mean; otherwise, for lysines with at least one R value <4 for a particular compound, the lowest value of the ratio set was taken. For lysines, where all R values for a particular compound were ≥4, the average was reported. For peptides containing several possible modified lysines, the lysine with the highest number of quantification events was used for analysis and the remaining, redundant peptides were reported as alternative modification sites. Peptides included in the aggregate dataset (those used for further bioinformatics and statistical analyses) were required to have been quantified in 2 experiments for competitive isoTOP-ABPP. Lysines were categorized as liganded, if they had at least one ratio R≥4 (hit fragments). For liganded lysines with R=20 for all liganding events, lysines were required to have been quantified with R=20 in two separate experiments and were further required to have been quantified with R<20 in one additional experiment.

DCTN2 Dynactin subunit 2 = molecular target: T2, DCTN2 Dynactin subunit 2 (Homo sapiens, UniProt Q13561); conditions: for isoTOP-ABPP ratio, lysine Q13561_K175: 50 uM_231_sol_in vitro
T2 construct: isoTOP-ABPP experiments performed in cell lysates (in vitro); endogenous in cells; host or cells: soluble proteome of human cancer cell lines (MDA-MB-231, Ramos, Jurkat)
T2 sequence (Q13561 whole entry): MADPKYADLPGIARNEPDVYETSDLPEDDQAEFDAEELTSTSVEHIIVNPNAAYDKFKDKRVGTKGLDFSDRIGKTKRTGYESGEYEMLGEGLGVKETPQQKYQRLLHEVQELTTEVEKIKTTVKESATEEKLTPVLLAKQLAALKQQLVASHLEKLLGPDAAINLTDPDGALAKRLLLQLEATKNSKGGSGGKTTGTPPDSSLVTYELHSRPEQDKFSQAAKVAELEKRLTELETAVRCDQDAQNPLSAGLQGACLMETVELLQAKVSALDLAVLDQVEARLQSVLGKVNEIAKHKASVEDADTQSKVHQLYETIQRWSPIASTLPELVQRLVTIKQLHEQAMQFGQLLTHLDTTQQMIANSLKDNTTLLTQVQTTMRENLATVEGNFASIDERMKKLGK
Procedure: as §1, §2, §3, §4

[2] = molecular target: T3, UCHL5 Ubiquitin carboxyl-terminal hydrolase isozyme L5 (Homo sapiens, UniProt Q9Y5K5); conditions: for isoTOP-ABPP ratio (R) at liganded lysine Q9Y5K5_K323: sol, 231; for isoTOP-ABPP ratio, lysine Q9Y5K5_K323: 50 uM_231_sol_in vitro
T3 construct: endogenous in cells; host or cells: MDA-MB-231 (soluble fraction of lysate)
T3 sequence (Q9Y5K5 1-329): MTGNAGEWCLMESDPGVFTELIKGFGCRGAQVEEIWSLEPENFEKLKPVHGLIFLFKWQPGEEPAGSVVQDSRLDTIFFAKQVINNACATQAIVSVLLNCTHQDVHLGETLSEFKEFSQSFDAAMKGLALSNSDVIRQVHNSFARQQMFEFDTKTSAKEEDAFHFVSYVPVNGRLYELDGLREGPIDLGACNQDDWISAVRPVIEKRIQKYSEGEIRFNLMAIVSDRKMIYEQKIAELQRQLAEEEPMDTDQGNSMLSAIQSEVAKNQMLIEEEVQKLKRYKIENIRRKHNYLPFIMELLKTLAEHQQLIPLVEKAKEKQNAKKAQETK
Procedure: as §1, §2, §3, §4

[3] = molecular target: T4, HNRNPK Heterogeneous nuclear ribonucleoprotein K (Homo sapiens, UniProt P61978)
T4 construct: isoTOP-ABPP experiments performed in cell lysates (in vitro); endogenous in cells; host or cells: soluble proteome of human cancer cell lines (MDA-MB-231, Ramos, Jurkat)
Procedure: as §1, §2, §3, §4

isoTOP-ABPP ratio, lysine Q13561_K175 (DCTN2 Dynactin subunit 2) | isoTOP-ABPP ratio, lysine Q9Y5K5_K323 [2] | Compound | isoTOP-ABPP ratio (R) at liganded lysine P23381_K256 [1] | isoTOP-ABPP ratio (R) at liganded lysine Q9Y5K5_K323 ([2]; 50 uM, in vitro) | also measured
 |  | O=C(Oc1ccc([N+](=O)[O-])cc1[N+](=O)[O-])C(c1ccccc1)(c1ccccc1)c1ccccc1 [fragment 42, 2,4-Dinitrophenyl 2,2,2-triphenylacetate] | 1.1 | 1.0 | isoTOP-ABPP ratio (R) at liganded lysine Q13561_K175 (DCTN2 Dynactin subunit 2; 50 uM, in vitro, sol, 231): 0.9
 |  | O=C(Oc1c(F)c(F)c(F)c(F)c1F)C1CCN(C(=O)OCc2ccccc2)CC1 [fragment 24, 1-Benzyl 4-(pentafluorophenyl) piperidine-1,4-dicarboxylate] |  |  | isoTOP-ABPP reactivity ratio at lysine Q13561_K175 (DCTN2 Dynactin subunit 2; 50 uM, 231 sol, in vitro): 1.3; isoTOP-ABPP reactivity ratio at lysine Q9Y5K5_K323 ([2]; 50 uM, 231 sol, in vitro): 0.8
0.9 | 1.0 | NC(=O)c1cc(C(F)(F)F)cc(C(F)(F)F)c1 [fragment 51, reference compound] |  |  | isoTOP-ABPP ratio, lysine P61978_K405 ([3]; 50 uM_231_sol_in vitro): 1.2
 |  | O=C(CC12CC3CC(CC(C3)C1)C2)Oc1ccc([N+](=O)[O-])cc1[N+](=O)[O-] [fragment 38, 2,4-Dinitrophenyl 2-(adamantan-1-yl)acetate] | 1.4 | 0.9 | isoTOP-ABPP ratio (R) at liganded lysine P61978_K405 ([3]; 50 uM, in vitro, sol, 231): 20.0
 |  | O=C(CCc1coc2cc(F)ccc2c1=O)Oc1ccc([N+](=O)[O-])cc1[N+](=O)[O-] [fragment 36, 2,4-Dinitrophenyl 3-(7-fluoro-4-oxo-4H-chromen-3-yl)propanoate] | 1.0 | 0.8 | 
1.0 | 1.4 | O=C(Oc1c(F)c(F)c(C(F)(F)F)c(F)c1F)c1cc(C(F)(F)F)cc(C(F)(F)F)c1 [fragment 47, 2,3,5,6-Tetrafluoro-4-(trifluoromethyl)phenyl 3,5-bis(trifluoromethyl)benzoate] |  |  | 
 |  | CCn1cc(C(=O)Oc2c(F)c(F)c(F)c(F)c2F)c(=O)c2ccc(C)nc21 [fragment 28, Pentafluorophenyl 1-ethyl-7-methyl-4-oxo-1,4-dihydro-1,8-naphthyridine-3-carboxylate] |  |  | isoTOP-ABPP reactivity ratio at lysine P23381_K256 ([1]; 231 sol): 1.0; isoTOP-ABPP reactivity ratio at lysine Q9Y5K5_K323 ([2]; 50 uM, 231 sol, in vitro): 1.2
 |  | O=C(CCc1cn(-c2ccccc2)nc1-c1ccccc1)Oc1c(F)c(F)c(F)c(F)c1F [fragment 19, Pentafluorophenyl 3-(1,3-diphenyl-1H-pyrazol-4-yl)propanoate] |  |  | R value (DMSO/fragment) for probe 1 labeling ([1]; P23381_K256, 231 sol): 1.2; R value (DMSO/fragment) for probe 1 labeling ([3]; P61978_K405, 50 uM, 231 sol, in vitro): 1.3; R value (DMSO/fragment) for probe 1 labeling ([2]; Q9Y5K5_K323, 50 uM, 231 sol, in vitro): 1.1
0.7 | 0.9 | O=C(Oc1c(F)c(F)cc(F)c1F)c1cc(C(F)(F)F)cc(C(F)(F)F)c1 [fragment 48, 2,3,5,6-Tetrafluorophenyl 3,5-bis(trifluoromethyl)benzoate] |  |  | 
